The source of these data is publication PMC5540273, “Progress towards a public chemogenomic set for protein kinases and a call for contributions” (PLoS ONE, 2017).

What all share (experiment): KINOMEscan competition binding
For experiment [1], the target named is T1, ICK (Homo sapiens, UniProt Q9UPZ9).
T1 sequence (Q9UPZ9 1-632): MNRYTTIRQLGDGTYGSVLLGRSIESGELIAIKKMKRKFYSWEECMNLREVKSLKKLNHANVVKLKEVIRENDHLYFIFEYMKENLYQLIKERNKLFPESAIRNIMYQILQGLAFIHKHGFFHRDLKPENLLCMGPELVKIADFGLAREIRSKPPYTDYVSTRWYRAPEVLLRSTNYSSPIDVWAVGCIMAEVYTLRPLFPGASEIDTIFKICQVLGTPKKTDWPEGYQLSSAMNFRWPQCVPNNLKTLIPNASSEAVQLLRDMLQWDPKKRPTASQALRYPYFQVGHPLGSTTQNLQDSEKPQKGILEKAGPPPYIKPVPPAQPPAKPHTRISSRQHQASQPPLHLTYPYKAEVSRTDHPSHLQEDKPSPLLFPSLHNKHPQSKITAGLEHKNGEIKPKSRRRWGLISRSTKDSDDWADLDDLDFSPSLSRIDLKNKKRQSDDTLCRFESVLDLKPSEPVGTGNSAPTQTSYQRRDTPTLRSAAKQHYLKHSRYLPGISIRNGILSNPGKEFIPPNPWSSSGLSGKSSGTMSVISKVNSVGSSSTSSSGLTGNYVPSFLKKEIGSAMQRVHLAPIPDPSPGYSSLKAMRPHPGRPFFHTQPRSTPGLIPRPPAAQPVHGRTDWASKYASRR
The conditions noted are these: read-out: %Inh ICK.

Experiment [2] has as its target AMPK-alpha2 (Homo sapiens, UniProt P54646). The conditions noted are these: read-out: %Inh AMPK-alpha2.
Experiment [3] deals with T2, GRK2 (Homo sapiens, UniProt P25098).
T2 sequence (P25098 1-689): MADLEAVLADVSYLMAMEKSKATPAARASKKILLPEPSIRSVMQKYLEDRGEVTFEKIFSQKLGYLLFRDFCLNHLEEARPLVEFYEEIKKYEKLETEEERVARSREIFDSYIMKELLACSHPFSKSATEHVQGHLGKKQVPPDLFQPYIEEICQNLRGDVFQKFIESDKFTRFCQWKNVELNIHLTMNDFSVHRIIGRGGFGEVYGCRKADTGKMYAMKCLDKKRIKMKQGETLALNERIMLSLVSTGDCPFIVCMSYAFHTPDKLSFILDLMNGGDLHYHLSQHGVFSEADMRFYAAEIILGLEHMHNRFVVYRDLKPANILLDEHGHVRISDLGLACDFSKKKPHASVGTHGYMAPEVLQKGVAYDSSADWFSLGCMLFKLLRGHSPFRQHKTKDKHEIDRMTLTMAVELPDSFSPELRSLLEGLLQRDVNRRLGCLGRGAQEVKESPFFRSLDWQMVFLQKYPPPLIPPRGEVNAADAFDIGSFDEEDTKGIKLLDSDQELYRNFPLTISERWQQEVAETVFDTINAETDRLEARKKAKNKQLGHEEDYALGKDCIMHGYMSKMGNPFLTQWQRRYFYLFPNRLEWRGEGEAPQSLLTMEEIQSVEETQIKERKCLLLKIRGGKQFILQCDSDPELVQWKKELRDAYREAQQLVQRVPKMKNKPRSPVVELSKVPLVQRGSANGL
The conditions noted are these: read-out: %Inh GRK2.

The target of experiment [4] is T3, LZK (Homo sapiens, UniProt O43283).
T3 sequence (O43283 1-966): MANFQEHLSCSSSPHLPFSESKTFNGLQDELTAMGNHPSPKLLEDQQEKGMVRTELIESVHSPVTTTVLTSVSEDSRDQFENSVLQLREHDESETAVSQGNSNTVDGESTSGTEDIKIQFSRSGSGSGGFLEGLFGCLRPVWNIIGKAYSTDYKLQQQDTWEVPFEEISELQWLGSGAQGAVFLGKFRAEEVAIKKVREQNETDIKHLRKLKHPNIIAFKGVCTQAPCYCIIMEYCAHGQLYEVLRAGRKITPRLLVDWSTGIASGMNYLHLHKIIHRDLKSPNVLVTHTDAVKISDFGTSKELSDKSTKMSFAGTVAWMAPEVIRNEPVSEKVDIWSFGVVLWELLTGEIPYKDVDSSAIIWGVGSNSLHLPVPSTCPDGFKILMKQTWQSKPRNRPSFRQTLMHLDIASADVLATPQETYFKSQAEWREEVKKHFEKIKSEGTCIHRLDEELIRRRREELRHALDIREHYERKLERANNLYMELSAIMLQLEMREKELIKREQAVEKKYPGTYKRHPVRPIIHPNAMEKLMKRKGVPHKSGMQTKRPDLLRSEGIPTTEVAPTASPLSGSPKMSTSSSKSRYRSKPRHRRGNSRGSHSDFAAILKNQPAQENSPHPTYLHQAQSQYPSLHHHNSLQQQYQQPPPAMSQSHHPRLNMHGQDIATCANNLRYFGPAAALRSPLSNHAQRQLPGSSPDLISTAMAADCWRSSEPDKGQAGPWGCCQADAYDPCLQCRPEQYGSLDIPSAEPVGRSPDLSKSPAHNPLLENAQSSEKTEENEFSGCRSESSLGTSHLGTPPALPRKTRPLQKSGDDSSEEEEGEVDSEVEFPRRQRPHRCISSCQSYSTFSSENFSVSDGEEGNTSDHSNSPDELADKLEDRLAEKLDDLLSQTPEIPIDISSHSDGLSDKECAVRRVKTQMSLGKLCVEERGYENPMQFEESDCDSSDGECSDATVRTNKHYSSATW
The conditions noted are these: read-out: %Inh LZK.

In experiment [5] the target is LIMK2 (Homo sapiens, UniProt P53671). The conditions noted are these: read-out: %Inh LIMK2.
LIMK2, sequence (P53671 whole entry): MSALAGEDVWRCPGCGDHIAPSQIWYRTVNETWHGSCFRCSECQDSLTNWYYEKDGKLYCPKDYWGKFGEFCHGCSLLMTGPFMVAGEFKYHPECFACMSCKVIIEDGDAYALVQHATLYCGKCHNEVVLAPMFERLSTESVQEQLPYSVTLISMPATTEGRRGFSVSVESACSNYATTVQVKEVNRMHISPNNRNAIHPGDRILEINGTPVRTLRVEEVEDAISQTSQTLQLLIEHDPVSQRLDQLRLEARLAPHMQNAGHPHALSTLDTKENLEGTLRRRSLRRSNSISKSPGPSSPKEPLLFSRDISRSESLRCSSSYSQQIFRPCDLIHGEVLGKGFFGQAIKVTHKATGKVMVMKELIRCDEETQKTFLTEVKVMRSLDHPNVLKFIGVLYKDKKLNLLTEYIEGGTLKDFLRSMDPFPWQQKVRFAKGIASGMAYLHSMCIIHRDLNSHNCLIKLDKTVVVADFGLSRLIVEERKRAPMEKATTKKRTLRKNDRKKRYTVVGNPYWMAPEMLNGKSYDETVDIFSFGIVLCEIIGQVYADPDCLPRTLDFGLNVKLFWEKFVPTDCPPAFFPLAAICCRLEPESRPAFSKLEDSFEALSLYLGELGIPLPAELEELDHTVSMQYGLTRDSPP
Experiment [6] has as its target ERK2 (Homo sapiens, UniProt P28482). The conditions noted are these: read-out: %Inh ERK2.

ERK2, sequence (P28482 whole entry): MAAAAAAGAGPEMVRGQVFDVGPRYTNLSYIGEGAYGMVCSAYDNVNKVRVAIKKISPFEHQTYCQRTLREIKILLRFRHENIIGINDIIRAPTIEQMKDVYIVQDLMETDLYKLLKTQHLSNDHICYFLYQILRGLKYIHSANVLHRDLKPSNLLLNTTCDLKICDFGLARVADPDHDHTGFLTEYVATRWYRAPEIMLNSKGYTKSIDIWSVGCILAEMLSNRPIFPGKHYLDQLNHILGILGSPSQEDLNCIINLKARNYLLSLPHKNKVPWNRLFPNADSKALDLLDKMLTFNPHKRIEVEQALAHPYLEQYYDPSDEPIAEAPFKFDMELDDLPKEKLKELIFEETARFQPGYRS
AMPK-alpha2, sequence (P54646 whole entry): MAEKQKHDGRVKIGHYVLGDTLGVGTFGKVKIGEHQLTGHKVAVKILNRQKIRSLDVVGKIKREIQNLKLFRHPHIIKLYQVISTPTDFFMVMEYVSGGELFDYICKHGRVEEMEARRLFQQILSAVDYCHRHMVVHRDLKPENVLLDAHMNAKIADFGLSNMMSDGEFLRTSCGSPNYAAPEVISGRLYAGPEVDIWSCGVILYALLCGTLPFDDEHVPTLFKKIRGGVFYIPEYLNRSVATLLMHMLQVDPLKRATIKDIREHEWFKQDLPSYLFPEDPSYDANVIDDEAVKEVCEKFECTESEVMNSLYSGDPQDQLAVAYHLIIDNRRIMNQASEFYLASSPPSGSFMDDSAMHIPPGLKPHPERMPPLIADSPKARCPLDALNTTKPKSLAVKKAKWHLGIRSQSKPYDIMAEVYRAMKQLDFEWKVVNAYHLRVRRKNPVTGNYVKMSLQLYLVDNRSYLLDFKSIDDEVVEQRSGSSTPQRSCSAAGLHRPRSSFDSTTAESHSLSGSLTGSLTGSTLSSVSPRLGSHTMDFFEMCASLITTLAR

With `COc1cccc(OC)c1C(=O)Nc1cccc(-c2nn3ccccc3c2-c2ccnc(Nc3cccc(F)c3)n2)c1` [UNC10225310A], the inhibition at 1 µM in experiment [1] was determined as 0%; in experiment [2] it was 4%; in experiment [3] it was 0%; in experiment [4] it was 8%; in experiment [5], 15%; in experiment [6] it was 6%.

For `O=c1cc(N2CCOCC2)nc2n(Cc3cccc(Cl)c3Cl)c(C3CC3)nn12` [UNC10225469A], the inhibition at 1 µM in experiment [1] is 4%; in experiment [2], 0%; in experiment [3], 0%; in experiment [4] it was 0%; in experiment [5], 8%; in experiment [6], 11%.

Take `Cn1cc(-c2cnc(N)c3c(-c4ccc5c(c4)CCN5C(=O)Cc4ccccc4)csc23)cn1` [UNC10225012A]: the inhibition at 1 µM is 100% in experiment [1]; 0% in experiment [2]; 0% in experiment [3]; 0% in experiment [4]; 55% in experiment [5]; 0% in experiment [6].

As for `CS(=O)(=O)Cc1ccc(Nc2nccc(-c3c(-c4cccc(NC(=O)C5CCCCC5)c4)nn4ncccc34)n2)cc1` [UNC10225159A], the inhibition at 1 µM in experiment [1] stood at 14%; in experiment [2], 2%; in experiment [3], 44%; in experiment [4], 0%; in experiment [5] it was 14%; in experiment [6], 0%.

Turning to `Cc1ccc(NC(=O)Nc2cccc(C(F)(F)F)c2)cc1` [UNC10225187A], the inhibition at 1 µM turned out to be 0% in experiment [1]; 0% in experiment [2]; 0% in experiment [3]; 0% in experiment [4]; 10% in experiment [5]; 0% in experiment [6].
